Results from US4426390A, “Novel β-lactam compounds, process for producing thereof, and use thereof as medicines” (Sanraku-Ocean Co., Ltd., priority 1980, dated 1984).
≈ marks a conversion by molar mass, not a printed value. Like-named read-outs stand apart in the source and are kept apart here.

Tests used:
Type in all cases: cell-based
[1] = tested on: Citrobacter Freundii GN346; assay: Disc assay of synergy, inhibition zones; conditions: for zone of inhibition at 100 µg/mL: Citrobacter freundii
Description: (§1) (B) The presence or absence of synergy is visually checked by the size difference in inhibitory zones observed when the test drug is disc-assayedon an agar plate of a detector microbe and on an agar plate of the detector containing cephaloridine or benzylpenicillin, respectively.
(§2) One loopful of the stock culture of a test organism is inoculated in heat infusion broth (5 ml/tube), and grown at 37° C. for 18 hours. The culture broth is diluted to a final concentration of about 10^5 cells/ml in nutrient agar with or without benzyl penicillin or cephaloridine, and plated in a Petri dish with a diameter of 9 cm, as shown below.
(§3) Using the above-prepared agar plates, antibiotic PS-5 (100 μg/ml), antibiotic OA-6129B2 (5,6-trans OA-6129B) (100 μg/ml), benzylpenicillin (1000 μg/ml) and cephaloridine (1000 μg/ml) are subjected to disc assay.

Serratia marccscens T55 = assay: Disc assay of synergy, inhibition zones; conditions: for zone of inhibition at 100 µg/mL: Serratia
Description: as §1, §2, §3

Proteus vulgaris GN76 [2] = assay: Disc assay of synergy, inhibition zones; conditions: for zone of inhibition at 100 µg/mL: Proteus vulgaris
Description: as §1, §2, §3

Enterobacter cloacac 45 = assay: Disc assay of synergy, inhibition zones
Description: as §1, §2, §3

[3] = tested on: Citrobacter Freundii GN346; assay: MIC by agar dilution method; conditions: 37° C., 18 hours
Description: (§4) The MIC is measured by an agar dilution method based on the standard method of the Japanese Society of Chemotherapy (Japanese Society of Chemotherapy: The Revised Method of Determination of MIC Values, Chemotherapy 22, 1126-1128, […]). Specifically, the antibiotic is serially diluted with a 1/50 M phosphate buffer at a pH of 7.3 to prepare a twofold dilution series. One milliliter of each dilution and 9 ml of an agar medium (Heart Infusion Agar; a product of Difco Laboratories) are mixed and allowed to solidify in a Petri dish having a diameter of 9 cm. One loopful of the stock culture of the test microbe is inoculated in trypto-soy buillon (a product of Eiken Kagaku Co., Ltd.) and incubated at 37° C. for 18 hours. The resulting culture broth is diluted to a concentration of about 10^6 cells/ml with physiological saline and inoculated on the agar plate by means of a microplanter.

P. vulgaris GN76 = assay: MIC by agar dilution method; conditions: Proteus vulgaris, 37° C., 18 hours
Description: as §4

[4] = tested on: Bacillus subtillis ATCC 6633; assay: MIC by agar dilution method; conditions: Bacillus, ATCC6633, 18 h
Description: as §4

S. epidermidis = assay: MIC by agar dilution method; conditions: Staphylococcus epidermidis, 37° C., 18 hours
Description: as §4

Alcaligenes Faecolis A1 = assay: MIC by agar dilution method; conditions: Alcaligenes Faecolis A1; agar dilution, 37° C., 18 hours; read-out: MIC
Description: as §4

Sarcina lutea S19 = assay: MIC by agar dilution method; conditions: Micrococcus luteus, 37° C., 18 hours
Description: as §4

Serratia marcesceus S18 = assay: MIC by agar dilution method; conditions: 37° C., 18 hours
Description: as §4

E. coli RGN823 = assay: MIC by agar dilution method; conditions: Escherichia coli, 37° C., 18 hours
Description: as §4

Providencia sp. P8 = assay: MIC by agar dilution method; conditions: Providencia sp. P8; agar dilution, 37° C., 18 hours; read-out: MIC
Description: as §4

Escherichia coli K-12 = assay: MIC by agar dilution method; conditions: K12; Escherichia coli K-12; agar dilution, 37° C., 18 hours; read-out: MIC
Description: as §4

Ent. cloacae 45 = assay: MIC by agar dilution method; conditions: Enterobacter cloacae, 37° C., 18 hours
Description: as §4

Ser. marcesceus T55 = assay: MIC by agar dilution method; conditions: 37° C., 18 hours
Description: as §4

Ent. sp. E8 = assay: MIC by agar dilution method; conditions: Ent. sp. E8; agar dilution, 37° C., 18 hours; read-out: MIC
Description: as §4

Proteus mirabilis P6 = assay: MIC by agar dilution method; conditions: Proteus mirabilis P6; agar dilution, 37° C., 18 hours; read-out: MIC
Description: as §4

[5] = tested on: Pseudomonas aenginosa IFO3445; assay: MIC by agar dilution method; conditions: 37° C., 18 hours
Description: as §4

[6] = tested on: Klebsiella pneumoniae K13; assay: MIC by agar dilution method; conditions: 37° C., 18 hours
Description: as §4

Ps. aeruginosa NCTC10490 = assay: MIC by agar dilution method; conditions: Pseudomonas aeruginosa, 37° C., 18 hours
Description: as §4

S. aureus Russell = assay: MIC by agar dilution method; conditions: Staphylococcus aureus; S. aureus Russell; agar dilution, 37° C., 18 hours; read-out: MIC
Description: as §4

P. rettgeri P7 = assay: MIC by agar dilution method; conditions: Providencia rettgeri; P. rettgeri P7; agar dilution, 37° C., 18 hours; read-out: MIC
Description: as §4

S. aureus Smith = assay: MIC by agar dilution method; conditions: Staphylococcus aureus, 37° C., 18 hours
Description: as §4

Comamonas terrigena B996 = assay: MIC by agar dilution method; conditions: 37° C., 18 hours
Description: as §4

[7] = tested on: Staphylococcus aureus 209P; assay: MIC by agar dilution method; conditions: 37° C., 18 hours
Description: as §4

[8] = tested on: Enterobacter aerogenes E19; assay: MIC by agar dilution method; conditions: Klebsiella aerogenes, 37° C., 18 hours
Description: as §4

Proteus vulgaris GN76 [9] = assay: Synergistic effect on MIC, microdilution transfer plate technique
[10] = tested on: Citrobacter Freundii GN346; assay: as above
[11] = plate: + CER, disc OA-6129B2, PS-5 100 μg/ml, CER, PCG 1000 μg/ml
[12] = plate: + PCG, disc OA-6129B2, PS-5 100 μg/ml, CER, PCG 1000 μg/ml
[13] = plate: + PCG, reduced to 5 μg/ml (final concentration), disc OA-6129B2, PS-5 100 μg/ml, CER, PCG 1000 μg/ml
[14] = plate: None, disc OA-6129B2, PS-5 100 μg/ml, CER, PCG 1000 μg/ml

## CC(O)[C@H]1C(=O)N2C(C(=O)O)=C(SCCNC(=O)CCNC(=O)C(O)C(C)(C)CO)C[C@H]12 (relative stereo) [OA-6129B2]
[1]; GN346, plate: None, disc OA-6129B2, PS-5 100 μg/ml, CER, PCG 1000 μg/ml, read-out: diameter of inhibition zones
  zone of inhibition at 100 µg/mL: 12 mm
[1]; [11]
  diameter of inhibition zones: 16.0 mm
[1]; [12]
  diameter of inhibition zones: 13.0 mm
Serratia marccscens T55; T55, plate: None, disc OA-6129B2, PS-5 100 μg/ml, CER, PCG 1000 μg/ml, read-out: diameter of inhibition zones
  zone of inhibition at 100 µg/mL: 12 mm
Serratia marccscens T55; [11]
  diameter of inhibition zones: 22.0 mm
Serratia marccscens T55; [13]
  diameter of inhibition zones: 12.0 mm
Proteus vulgaris GN76 [2]; GN76, plate: None, disc OA-6129B2, PS-5 100 μg/ml, CER, PCG 1000 μg/ml, read-out: diameter of inhibition zones
  zone of inhibition at 100 µg/mL: 0 mm
Proteus vulgaris GN76 [2]; [11]
  diameter of inhibition zones: 20.0 mm
Proteus vulgaris GN76 [2]; [12]
  diameter of inhibition zones: 19.5 mm
Enterobacter cloacac 45; Enterobacter, 45, plate: None, disc OA-6129B2, PS-5 100 μg/ml, CER, PCG 1000 μg/ml, read-out: diameter of inhibition zones
  zone of inhibition at 100 µg/mL: 10 mm
Enterobacter cloacac 45; [11]
  diameter of inhibition zones: 15.0 mm
Enterobacter cloacac 45; [12]
  diameter of inhibition zones: 12.0 mm
[3]
  MIC: 25 µg/mL (≈ 52.8 µM)
P. vulgaris GN76
  MIC: 50 µg/mL (≈ 106 µM)
[4]
  MIC: 1.56 µg/mL (≈ 3.29 µM)
S. epidermidis
  MIC: 12.5 µg/mL (≈ 26.4 µM)
Alcaligenes Faecolis A1
  MIC: 6.25 µg/mL (≈ 13.2 µM)
Sarcina lutea S19
  MIC: 6.25 µg/mL (≈ 13.2 µM)
Serratia marcesceus S18
  MIC: 25 µg/mL (≈ 52.8 µM)
E. coli RGN823
  MIC: 12.5 µg/mL (≈ 26.4 µM)
Providencia sp. P8
  MIC: 6.25 µg/mL (≈ 13.2 µM)
Escherichia coli K-12
  MIC: 12.5 µg/mL (≈ 26.4 µM)
Ent. cloacae 45
  MIC: 50 µg/mL (≈ 106 µM)
Ser. marcesceus T55
  MIC: 50 µg/mL (≈ 106 µM)
Ent. sp. E8
  MIC: 25 µg/mL (≈ 52.8 µM)
Proteus mirabilis P6
  MIC: 50 µg/mL (≈ 106 µM)
[5]
  MIC: > 100 µg/mL
[6]
  MIC: 12.5 µg/mL (≈ 26.4 µM)
Ps. aeruginosa NCTC10490
  MIC: > 100 µg/mL
S. aureus Russell
  MIC: 12.5 µg/mL (≈ 26.4 µM)
P. rettgeri P7
  MIC: 25 µg/mL (≈ 52.8 µM)
S. aureus Smith
  MIC: 12.5 µg/mL (≈ 26.4 µM)
Comamonas terrigena B996
  MIC: 0.39 µg/mL (≈ 0.824 µM)
[7]
  MIC: 6.25 µg/mL (≈ 13.2 µM)
[8]
  MIC: 25 µg/mL (≈ 52.8 µM)

## CC1(C)S[C@@H]2[C@H](NC(=O)[C@H](N)c3ccccc3)C(=O)N2[C@H]1C(=O)O [ABPC, Aminobenzylpenicillin]
Proteus vulgaris GN76 [9]; with OA-6129A 1.56 μg/ml
  MIC of ABPC in combination: 3.3 µg/mL
Proteus vulgaris GN76 [9]; with OA-6129A 6.25 μg/ml
  MIC of ABPC in combination: 39 µg/mL
Proteus vulgaris GN76 [9]; with OA-6129A 25 μg/ml
  MIC of ABPC in combination: 10 µg/mL
Proteus vulgaris GN76 [9]; with OA-6129A 50 μg/ml
  MIC of ABPC in combination: < 5 µg/mL
Proteus vulgaris GN76 [9]; with OA-6129A […]
  MIC of ABPC in combination: 156 µg/mL
[10]; with OA-6129A 6.25 μg/ml
  MIC of ABPC in combination: 313 µg/mL
[10]; with OA-6129A 25 μg/ml
  MIC of ABPC in combination: < 5 µg/mL
[10]; with OA-6129A 50 μg/ml
  MIC of ABPC in combination: < 5 µg/mL
[10]; with OA-6129A […]
  MIC of ABPC in combination: 625 µg/mL

## O=C(Cc1cccs1)N[C@@H]1C(=O)N2C(C(=O)[O-])=C(C[n+]3ccccc3)CS[C@H]12 [CER, Cephaloridine]
Proteus vulgaris GN76 [9]; Proteus vulgaris, GN76, alone, heart infusion broth, 10^5 cells/ml
  MIC: 1250 µg/mL
Proteus vulgaris GN76 [9]; with OA-6129A 1.56 μg/ml
  MIC of CER in combination: 313 µg/mL
Proteus vulgaris GN76 [9]; with OA-6129A 6.25 μg/ml
  MIC of CER in combination: 39 µg/mL
Proteus vulgaris GN76 [9]; with OA-6129A 25 μg/ml
  MIC of CER in combination: < 5 µg/mL
Proteus vulgaris GN76 [9]; with OA-6129A 50 μg/ml
  MIC of CER in combination: < 5 µg/mL
[10]; with OA-6129A 1.56 μg/ml
  MIC of CER in combination: 1250 µg/mL
[10]; with OA-6129A 6.25 μg/ml
  MIC of CER in combination: 313 µg/mL
[10]; with OA-6129A 25 μg/ml
  MIC of CER in combination: < 5 µg/mL
[10]; with OA-6129A 50 μg/ml
  MIC of CER in combination: < 5 µg/mL
[1]; GN346, read-out: diameter of inhibition zones
  zone of inhibition at 100 µg/mL: 0 mm
[1]; [11]
  diameter of inhibition zones: 0 mm
[1]; [12]
  diameter of inhibition zones: 0 mm
Serratia marccscens T55; T55, read-out: diameter of inhibition zones
  zone of inhibition at 100 µg/mL: 0 mm
Serratia marccscens T55; [11]
  diameter of inhibition zones: 0 mm
Serratia marccscens T55; [13]
  diameter of inhibition zones: 0 mm
Proteus vulgaris GN76 [2]; GN76, read-out: diameter of inhibition zones
  zone of inhibition at 100 µg/mL: 0 mm
Proteus vulgaris GN76 [2]; [11]
  diameter of inhibition zones: 0 mm
Proteus vulgaris GN76 [2]; [12]
  diameter of inhibition zones: 0 mm
Enterobacter cloacac 45; Enterobacter, 45, read-out: diameter of inhibition zones
  zone of inhibition at 100 µg/mL: 0 mm
Enterobacter cloacac 45; [11]
  diameter of inhibition zones: 0 mm
Enterobacter cloacac 45; [12]
  diameter of inhibition zones: 0 mm

## CC1(C)S[C@@H]2[C@H](NC(=O)Cc3ccccc3)C(=O)N2[C@H]1C(=O)O [PCG, benzylpenicillin]
[1]; [11]
  diameter of inhibition zones: 0 mm
[1]; [12]
  diameter of inhibition zones: 0 mm
[1]; [14]
  diameter of inhibition zones: 0 mm
Serratia marccscens T55; [11]
  diameter of inhibition zones: 0 mm
Serratia marccscens T55; [13]
  diameter of inhibition zones: tr.
Serratia marccscens T55; [14]
  diameter of inhibition zones: tr.
Proteus vulgaris GN76 [2]; [11]
  diameter of inhibition zones: 0 mm
Proteus vulgaris GN76 [2]; [12]
  diameter of inhibition zones: 0 mm
Proteus vulgaris GN76 [2]; [14]
  diameter of inhibition zones: 0 mm
Enterobacter cloacac 45; [11]
  diameter of inhibition zones: 0 mm
Enterobacter cloacac 45; [12]
  diameter of inhibition zones: 0 mm
Enterobacter cloacac 45; [14]
  diameter of inhibition zones: 0 mm
